Legend:
[1] = test system: Leptosphaeria nodorum (LEPTNO); assay: In vitro fungitoxicity (growth inhibition) in copper-minus and copper-plus medium; type: cell-based
Protocol: Trace elements (minus CuSO4), and vitamins described by Coursen and […] were added from concentrated stock solutions and the entire medium was sterilized by filtration. […] […] was grown on potato dextrose agar in 9 cm diameter petri dishes for 7 days. Sterile deionized water (20 mL) was added to a culture plate and spores suspended by scraping the surface gently with a sterile plastic loop. The resulting suspension was filtered through a double layer of sterile cheesecloth. Filtered spore suspension (5 mL) was centrifuged in a bench centrifuge at 2000 rpm for 2 min. […] Microtiter plates were inoculated with 100 μL of this spore suspension and the plates incubated at 25° C. for 72 h before assessing fungal growth by measuring light scattering in a NepheloStar plate reader. Growth inhibition was determined by comparing growth in the presence of test compound with growth in control wells lacking test compound. Results for growth inhibition by test compounds in copper-plus medium (“% Inhn. Plus Copper Observed”) were compared with predicted values (“% Inhn. Plus Copper Predicted”) that were calculated using the formula set forth by S. R. […] Minus Copper Observed”) and the inhibition attributed to copper chloride alone, as determined by comparing growth in copper-minus and copper-plus media without any test compound across experiments. Results illustrate that hydrazones and copper produce a synergistic fungitoxic effect towards […].

[2] = test system: Phytophthora infestans; type: in vivo; conditions: 50 ppm hydrazone with 50 μM CuCl2.2H2O, applied 24 h before inoculation, tomato plants, 7 days after inoculation
[3] = test system: Phytophthora capsici; assay: In vitro fungitoxicity in copper-minus AS and copper-plus AS medium; type: cell-based; conditions: CuCl2 50 uM, without test compound, across experiments
Protocol: Plates were inoculated with 7-mm plugs from a 1-week old culture, incubated at 25° C. in the dark for 3 days, and then placed under fluorescent lights for 4 days to induce sporulation. Zoospore release from sporangia was induced by adding 15 mL of sterile deionized water (which had been treated with Chelex 100 resin using 0.5 g resin per liter of water by stirring at room temperature for 1 h) to each plate, and incubating for 10 min at 25° C. followed by 20 min at 4° C. The plates were returned to 25° C. for 10 min and the aqueous suspension of released zoospores was recovered. The zoospore suspension was adjusted to 5×10^4 spores/mL by dilution into Chelex 100-treated water. Microtiter plates were inoculated with 100 μL of spore suspension and incubated at 25° C. for 48 h before assessing fungal growth by measuring light scattering in a NepheloStar plate reader. Growth inhibition was determined by comparing growth in the presence of test compound with growth in control wells lacking test compound. Results for growth inhibition by test compounds in copper-plus AS medium (“% Inhn. Plus Copper Observed”) were compared with predicted values (“% Inhn. Plus Copper Predicted”) that were calculated using the formula set forth by S. R. […]

[4] = test system: Ustilago maydis; assay: In vitro fungitoxicity in copper-minus and copper-plus medium; type: cell-based; conditions: CuCl2 10 μM, without test compound
Protocol: Test compounds were dissolved in dimethylsulfoxide (DMSO) at 200 μg/mL and 1 μL aliquots were added to two wells of flat-bottomed 96-well microtiter plates. […] Control wells, included for each medium, received 1 uL DMSO and 100 μL of medium. Ustilago maydis was grown in 50 mL potato dextrose broth with shaking at 25° C. for 24 h. A 10 mL aliquot of the culture was centrifuged at 2000 rpm for 2 min, resuspended in 10 mL of sterile Chelex 100-treated water, and centrifuged again. […] Microtiter plate wells containing test compound of DMSO (control) as described above were inoculated with 100 μL of this spore suspension and the plates incubated at 25° C. for 48 h before assessing fungal growth by measuring light scattering in a NepheloStar plate reader. Growth inhibition was determined by comparing growth in the presence of test compound with growth in control wells lacking test compound. […] Plus Copper Observed”) were compared with predicted results (“% Inhn. Plus Copper Predicted”) that were calculated using the formula set forth by S. R. […] Minus Copper Observed”) and the inhibition attributed to copper chloride alone, as determined by comparing growth in copper-minus and copper-plus media without any test compound. Results illustrate that hydrazones and copper produce a synergistic fungitoxic effect towards Ustilago maydis.

[5] = test system: Septoria tritici isolate USA-184; assay: as above; type: cell-based; conditions: CuCl2 1 μM, without test compound
Protocol: Test compounds were dissolved in dimethylsulfoxide (DMSO) at 10 μg/mL and 1 μL aliquots were added to two wells of flat-bottomed 96-well microtiter plates. […] Control wells, included for each medium, received 1 uL DMSO and 100 μL of medium. Septoria tritici isolate USA-184 was grown on potato dextrose agar at 18° C. under black lights for 3 days. A loopful of spores was transferred from the culture to a 15 mL tube containing 5 mL of sterile Chelex-treated water. The spores were centrifuged at 2000 rpm for 2 min, resuspended in 10 mL water, and centrifuged again. […] Microtiter plate wells containing test compound of DMSO (control) as described above were inoculated with 100 μL of this spore suspension and the plates incubated at 25° C. for 90 h before assessing fungal growth by measuring light scattering in a NepheloStar plate reader. Growth inhibition was determined by comparing growth in the presence of test compound with growth in control wells lacking test compound. […] Plus Copper Observed”) were compared with predicted results (“% Inhn. Plus Copper Predicted”) that were calculated using the formula set forth by S. R. […] Minus Copper Observed”) and the inhibition attributed to copper chloride alone, as determined by comparing growth in copper-minus and copper-plus media without any test compound. […]

[6] = test system: Staphylococcus aureus, Escherichia coli, Aspergillus niger and A. flavus; conditions: Proceedings of the National Academy of Sciences, India 1991; cited from earlier work

Structure (SMILES): O=C(N/N=C/c1cccc(C(F)(F)F)c1O)c1ccc(C(F)(F)F)cc1O [Compound 42]
- LEPTNO % Inhn. Plus Copper Observed ([1]; 0.05 μg/mL compound, copper-plus medium (CuCl2, 10 μM), 72 h): 98.4%
- inhibition of growth at 0.05 µg/mL ([1]; Parastagonospora nodorum, 0.05 μg/mL compound, copper-minus medium, 72 h, read-out: LEPTNO % Inhn. Minus Copper Observed): 8.8%
- TLB % Control [2]: 100.0%
- melting point: 248 to 253 °C

Structure (SMILES): [Cl][Cu][Cl] [CuCl2, copper chloride]
- LEPTNO % Inhn. copper chloride alone ([1]; CuCl2 10 μM, without test compound, across experiments): 7.1 ± 6.0%
- % Inhn copper chloride alone [3]: 4.5 ± 7.9%
- % Inhn. copper chloride alone [4]: 11.9%
- % Inhibition copper chloride alone [5]: 0%
- % Inhibition copper chloride alone ([5]; listed as copper chloride): no effect on growth

Structure (SMILES): O=C(NN=Cc1ccccc1O)c1ccccc1O [o-hydroxybenzaldehyde-N-salicyloylhydrazone]
- antimicrobial activity [6]: Antimicrobial activity has been reported

— patent US20120148682A1
